In the assay the test system is T1, CYP3A4/5.
T1 construct: native enzymes in pooled human liver microsomes (16 samples, XenoTech); read out by testosterone 6beta-hydroxylation and midazolam 1'-hydroxylation
Description: testosterone 6beta-hydroxylation in human liver microsomes, HPLC-MS/MS. It counts as biochemical. To be noted: direct inhibition, no pre-incubation; testosterone 100 μM (about Km); NADPH-generating system, pH 7.4, 37 °C; read-out: Direct inhibition; 0-min Pre-incubation / IC50. The text has this:
testosterone 6beta-hydroxylation in human liver microsomes, HPLC-MS/MS on CYP3A4/5

A value given as a limit tells only on which side of the number the result lay.

Take `Nc1ccncc1` [4-AP]: the IC50 is more than 30 µM.
